# Source: patent US5677305A, “Oxopyridinylquinoxaline derivative” (Shionogi & Co., Ltd., priority 1994, dated 1997)
# Experiments:
# [1] = test system: glycine binding site of the NMDA receptors; conditions: in words; cited from earlier work
# [2] = target: T1, glycine binding site of NMDA receptors (Rattus norvegicus, UniProt P35439); assay: competitive binding to a glycine binding site of NMDA receptors ([3H]glycine); design: species or system Slc-Wistar rat; conditions: for IC50: [3H]glycine 100 nM, rat cerebral cortex membrane, 0° C., 10 minutes
# T1 construct: the cerebral cortex of an Slc-Wistar rat (250 to 300 g in weight) was homogenized; from tissue; host or cells: cerebral cortex of Slc-Wistar rat, washed and Triton X-100 treated membranes
# Procedure: The ability of the compounds of the present invention to bind to a glycine binding site of the NMDA receptors can be measured, for example, using competitive assay in vitro as described below.
# (§1) A rat cerebral cortex is homogenized with a buffer solution, and repeatedly centrifuged and resuspended in a buffer to prepare a membrane sample. The membrane sample is mixed with a solution containing [^3 H] glycine and a compound of interest and incubated for a predetermined period of time. Then, the reaction of the mixture is terminated by dilution and filtration using filter paper. Radioactivity on the filter paper is measured by a liquid scintillation counter. Non-specific binding is measured with 1 mM of non-radioactive glycine to work out IC50.
# Assay for competitive binding of 6-nitro-7-(4-oxo-4H-pyridin-1-yl)-1,4-dihydroquinoxaline-2,3-dione (Ia) to a glycine binding site of NMDA receptors.
# First, the cerebral cortex of an Slc-Wistar rat (250 to 300 g in weight) was homogenized in 5 mM Tris acetic acid buffer in 20-fold volume (containing 1 mM EGTA, 0.1 mM PMSF, and 0.01% Bacitracin, pH 7.4). The cerebral cortex was centrifuged at 50,000×g for 30 minutes and resuspended in a buffer. This process was repeated four times. The final suspension was stored at -80° C. The frozen suspension was thawed at room temperature and incubated with 0.08% Triton X-100 solution at […] for 10 minutes. The resultant suspension was then washed twice and suspended in 50 mM Tris-acetate buffer (pH 7.4) to give a membrane sample. The membrane sample was mixed with 100 nM [^3 H]glycine and solutions in a series of concentrations of Compound Ia obtained in Example 1. The mixtures were incubated at 0° C. for 10 minutes. Each of the mixtures was diluted and filtered using Whatman GF/C filter paper so as to terminate the reaction, and radioactivity of ^3 H remaining on the filter paper was measured by a scintillation counter for liquid. […] IC50 value of Compound Ia was determined using YM900 (a compound of Example 15 described in WO92/07847) as a control in the same way as described above.
# AMPA receptors = assay: competitive binding to AMPA receptors ([3H]AMPA); design: species or system Slc-Wistar rat; conditions: [3H]AMPA 30 nM, rat cerebral cortex membrane, 100 mM KSCN, 0° C., 30 minutes
# Procedure: The binding ability of the compounds of the present invention with respect to the AMPA receptors can be measured, for example, by the following competitive assay.
# as §1, with “H] AMPA” for “H] glycine”, “non-radioactive glutamate” for “non-radioactive glycine”
# Assay for competitive binding of 6-nitro-7-(4-oxo-4H-pyridin-1-yl)-1,4-dihydroquinoxaline-2,3-dione (Ia) to AMPA receptors.
# First, the cerebral cortex of an Slc-Wistar rat (250 to 300 g in weight) was homogenized in 30 mM Tris acetic acid buffer in 10-fold volume (containing 2.5 mM CaCl2, pH 7.1). […] Each of the mixtures was diluted and filtered using Whatman GF/C filter paper so as to terminate the reaction, and radioactivity of ^3 H remaining on the filter paper was measured by a scintillation counter for liquid. […] IC50 value of Compound Ia was determined using YM900 as a control in the same way as described above.
SMILES,antagonistic effects on the glycine binding site of the NMDA receptors [1],"antagonistic effects as strong as that of YM900 (times) ([2]; Ia vs YM900, from Table 2)",IC50 [2] [µM],IC50 (AMPA receptors) [µM]
"N#Cc1cc2[nH]c(=O)c(=O)[nH]c2cc1[N+](=O)[O-] [CNQX, 6-cyano-7-nitroquinoxaline-2,3-dione]",exhibit antagonistic effects on the glycine binding site of the NMDA receptors,–,–,–
"O=c1[nH]c2cc([N+](=O)[O-])c([N+](=O)[O-])cc2[nH]c1=O [DNQX, 6,7-dinitroquinoxaline-2,3-dione]",exhibit antagonistic effects on the glycine binding site of the NMDA receptors,–,–,–
"O=c1ccn(-c2cc3[nH]c(=O)c(=O)[nH]c3cc2[N+](=O)[O-])cc1 [Ia, 6-nitro-7-(4-oxo-4H-pyridin-1-yl)-1,4-dihydroquinoxaline-2,3-dione]",–,approximately ten,6.6,0.1
"O=c1[nH]c2cc(-n3ccnc3)c([N+](=O)[O-])cc2[nH]c1=O [YM900, 6-imidazolyl-7-nitroquinoxaline-2,3-(1H, 4H)-dione]",–,–,67,0.28
